This note sets out measurements from patent publication US8507499B2, “Substituted indole/indazole-pyrimidinyl compounds” (Confluence Life Sciences, Inc., priority 2010, dated 2013).

This experiment deals with p38/MK2 (Homo sapiens, UniProt Q16539). In words: p38α/MK2 cascade assay (phosphorylation of Hsp27 peptide, Caliper LabChip 3000). To be noted: Hsp27 peptide 1 μM, MgATP 10 μM, two values printed in one cell. Type of experiment: biochemical. The procedure:
The novel, MK2 substrate-selective inhibitory mechanism of compounds is evaluated in enzyme assays comparing inhibitor potency in blocking p38/MK2 versus p38/PRAK induced phosphorylation of an HSP-27 derived peptide substrate. The ability of compounds to inhibit activated phospho-p38α is evaluated using a p38α/MK2 and a p38α/PRAK cascade assay format. The kinase activity of p38α is determined by its ability to phosphorylate GST-MK2 or GST-PRAK. Activation of MK2 or PRAK by p38α is quantitated by measuring the phosphorylation of a fluorescently-labeled, MK2 specific peptide substrate, Hsp27 peptide (FITC-KKKALSRQLSVAA). The phosphorylation of the Hsp27 peptide is quantified using the Caliper LabChip 3000. Kinase reactions are carried out in a 384-well plate (Matrical, MP101-1-PP) in 20 mM HEPES pH 7.5, 10 mM MgCl2, 0.0005% Tween-20, 0.01% BSA, 1 mM DTT, and 2% DMSO. […] The p38α compound inhibitory potency is quantitated from dose-response IC50 values or Ki values from p38α/MK2 cascade assays while the substrate selectivity is calculated as a ratio of p38α/PRAK:p38α/MK2 IC50 values. Species compounds of Formula I, described hereinabove, evaluated in this assay, are expected to provide a therapeutic benefit in the treatment of p38 kinase mediated diseases, such as autoimmune diseases and lymphoma.

pIC50: −log10 of the molar value. Values joined by “and” are separate entries in the source; they are usually repeats but may differ in a detail not shown here. Equal entries are not always repeated.

Chain of p38/MK2 (Q16539 whole entry): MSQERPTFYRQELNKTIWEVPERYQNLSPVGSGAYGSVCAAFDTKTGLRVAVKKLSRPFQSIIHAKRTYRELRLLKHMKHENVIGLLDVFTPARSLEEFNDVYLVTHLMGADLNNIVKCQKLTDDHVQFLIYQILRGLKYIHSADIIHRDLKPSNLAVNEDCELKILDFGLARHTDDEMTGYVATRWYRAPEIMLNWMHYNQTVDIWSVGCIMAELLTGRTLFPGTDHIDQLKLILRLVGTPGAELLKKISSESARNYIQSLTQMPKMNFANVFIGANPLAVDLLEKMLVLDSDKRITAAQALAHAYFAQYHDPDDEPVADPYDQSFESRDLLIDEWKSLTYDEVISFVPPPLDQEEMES

For `CC(C)(C)c1nccc(-c2c[nH]c3cc(Cl)c(C(=O)N4CCC(Cc5ccc(F)cc5)CC4)cc23)n1` [Example 57, (3-(2-tert-Butyl-pyrimidin-4-yl)-6-chloro-1H-indol-5-yl)-(4-(4-fluorobenzyl)-piperidin-1-yl)-methanone], the pIC50 is 5.54 and 5.41.

Broadly, the pIC50 is −log10 of the IC50, conventionally taken in molar units. Low readings indicate a high IC50, high ones a low IC50.
